Where two headings read alike, the source gives them in different places.
Columns and labels:
[1] = Relaxivity in human serum reconstituted from Seronorm Human; type: physicochemical; details: human serum reconstituted from lyophilized Seronorm Human (Nycomed Pharma)
Description: The relaxivity of the compounds of the invention was measured both in saline solution and in human serum, reconstituted from Seronorm^(R) Human (Nycomed Pharma), lyophilized human serum.

[2] = tested on: mouse; assay: Acute toxicity, DL50 in the mouse; type: in vivo; details: i.v.
[3] = Thermodynamic stability constant in aqueous solution, potentiometric method; type: physicochemical; details: 20°C, 0.1 M KCl aqueous solution
[4] = tested on: mouse; details: literature value, cited from earlier work
[5] = thermodynamic stability constant; from Smith and Martell, Critical Stability Constants, Vol. 6; cited from earlier work

Row | Compound | Relaxivity Seronorm Human r1 [1] | DL50 [2] | Log KML [3] | DL50 ([4]; i.v.) | DL50 ([4]; i.p.) | Log KML [5]
1 | Manganese complex(II) of N,N'-1,2-ethanediylbis[N-(carboxymethyl)-O-(phenylmethyl) -D,L-serine] salified with 1-deoxy-1-(methyl amino) -D-glucitol (1:2) [EXAMPLE 1] | 36 ^(3) mM^-1s^-1 | 4.5 mmol/kg | 13.8 ± 0.1 |  |  | 
2 | [Cl][Mn][Cl] [MnCl2] | 53 ^(3) mM^-1s^-1 |  |  | 0.25 - 0.30 ^(1) mmol/kg |  | 
3 | Mn-EDTA | 10 ^(3) mM^-1s^-1 |  |  |  | 5.9 ^(2) mmol/kg | 13.88 ^(2)

Reference: patent publication EP1061957B1, “MANGANESE (II) CHELATES WITH HIGH RELAXIVITY IN SERUM” (BRACCO S.p.A., priority 1998, dated 1999)
